This is an account of results in PubChem BioAssay (NCI).

Structures are written as SMILES.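 Step 1: Grow cells in 96-well plates. Step 2: Expose to compound for 48 hours at 5 concentrations. Step 3: Interpolate endpoints linearly; if unreached, use highest concentration. Definition used: TGI = concentration required for complete inhibition of growth.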

Some test systems named below: UACC-257 melanoma; HL-60(TB) leukemia; OVCAR-8 ovarian; SR leukemia; HT29 colon; IGROV1 ovarian; MALME-3M melanoma; MDA-MB-435; OVCAR-4 ovarian; MDA-N; UACC-62 melanoma; SNB-75 CNS; ACHN renal; A498 renal; SK-OV-3 ovarian; NCI-H522 lung; SK-MEL-28 melanoma; TK-10 renal; HOP-92 NSCLC.
Common to all, as to test: NCI-60 cell line screen, 48 h

Consider `CCOC(=O)c1ccc2c(=O)n3c(C(=O)OCC)ccc3c(=O)n12`, for which the TGI in the assay with UACC-257 melanoma, in the assay on HL-60(TB) leukemia, in the assay with OVCAR-8 ovarian, with SR leukemia, in the assay with HT29 colon and in the assay on IGROV1 ovarian was over 100 µM throughout. In addition, the TGI in the assay with MALME-3M melanoma, in the assay with MDA-MB-435, in the assay on OVCAR-4 ovarian, in the assay on MDA-N, in the assay with UACC-62 melanoma and in the assay on SNB-75 CNS was over 100 µM each time. In addition, the TGI in the assay on ACHN renal, in the assay with A498 renal, in the assay on SK-OV-3 ovarian, in the assay on NCI-H522 lung, in the assay on SK-MEL-28 melanoma and with TK-10 renal was over 100 µM in each case.
In the case of `COc1ccc(CCNC(=S)/N=C\C2=C(O)c3ccccc3C2=O)cc1OC`, the TGI in the assay on UACC-257 melanoma, with HL-60(TB) leukemia, in the assay with OVCAR-8 ovarian, in the assay on SR leukemia, with HT29 colon and in the assay on IGROV1 ovarian was over 100 µM in each case. In addition, the TGI with MALME-3M melanoma is over 100 µM; in the assay with MDA-MB-435 it was over 100 µM; with OVCAR-4 ovarian, over 100 µM; in the assay on HOP-92 NSCLC it was 8.92 µM; with MDA-N it was over 100 µM; in the assay on UACC-62 melanoma, over 100 µM. For the same compound, the TGI in the assay on SNB-75 CNS, with ACHN renal, in the assay on A498 renal, with SK-OV-3 ovarian, in the assay with NCI-H522 lung and in the assay with SK-MEL-28 melanoma was over 100 µM throughout.
With `O=C(O)C1C2CCC(C2)C1c1ccccc1` (centres undefined), the TGI in the assay with UACC-257 melanoma, in the assay on HL-60(TB) leukemia, with OVCAR-8 ovarian, in the assay on SR leukemia, in the assay on HT29 colon and in the assay with MALME-3M melanoma was over 100 µM in each case. For the same compound, the TGI in the assay on MDA-MB-435, with HOP-92 NSCLC, in the assay on MDA-N, in the assay on UACC-62 melanoma, with SNB-75 CNS and in the assay on ACHN renal was over 100 µM each time. The TGI in the assay on A498 renal, in the assay with SK-OV-3 ovarian, in the assay on NCI-H522 lung, in the assay with SK-MEL-28 melanoma and with TK-10 renal was over 100 µM throughout.
For `CCOc1ccc(-n2c(=O)n3c(Nc4ccc(Cl)cc4)nc4c(c(=O)n(C)c(=O)n4C)n3c2=O)cc1`, the TGI is 60.4 µM in the assay with UACC-257 melanoma; 51.7 µM in the assay with HL-60(TB) leukemia; over 100 µM with OVCAR-8 ovarian; 51.6 µM in the assay with SR leukemia; over 100 µM in the assay on HT29 colon; over 100 µM with IGROV1 ovarian. For the same compound, the TGI in the assay with MDA-MB-435 is 39.7 µM; in the assay with OVCAR-4 ovarian it was over 100 µM; with HOP-92 NSCLC, 48.2 µM; in the assay on MDA-N, over 100 µM; with UACC-62 melanoma it was 46.3 µM; in the assay with SNB-75 CNS, 69.1 µM. For the same compound, the TGI was over 100 µM in the assay on ACHN renal; 39.4 µM in the assay with A498 renal; 32.8 µM in the assay on NCI-H522 lung; 65.3 µM in the assay with SK-MEL-28 melanoma; 66 µM in the assay with TK-10 renal.
In the case of `C[N+](C)(N)Cc1csc(-c2ccc(Cl)cc2)n1`, the TGI with UACC-257 melanoma, with OVCAR-8 ovarian, in the assay with SR leukemia, in the assay on HT29 colon, in the assay on IGROV1 ovarian and in the assay with MALME-3M melanoma was over 100 µM each time. Moreover, the TGI in the assay with MDA-MB-435, in the assay on OVCAR-4 ovarian, in the assay on HOP-92 NSCLC, in the assay on MDA-N, with UACC-62 melanoma and in the assay on SNB-75 CNS was over 100 µM each time. The TGI in the assay with ACHN renal, in the assay on A498 renal, with SK-OV-3 ovarian, in the assay on NCI-H522 lung, in the assay with SK-MEL-28 melanoma and with TK-10 renal was over 100 µM each time.
Take `O=C1O[C@H](COC(=O)c2ccccc2)[C@@H](OC(=O)c2ccccc2)C=C1OC(=O)c1ccccc1`: the TGI in the assay on UACC-257 melanoma is 69.3 µM; with HL-60(TB) leukemia, 27.1 µM; in the assay with OVCAR-8 ovarian it was 45.4 µM; in the assay on SR leukemia, 46.9 µM; in the assay on IGROV1 ovarian, 57.2 µM; in the assay with MDA-MB-435 it was 69.9 µM. For the same compound, the TGI in the assay with OVCAR-4 ovarian is 48.7 µM; in the assay with HOP-92 NSCLC, 42.8 µM; in the assay on MDA-N it was over 100 µM; in the assay on UACC-62 melanoma, 49.6 µM; in the assay with SNB-75 CNS, over 100 µM; with ACHN renal it was 35.3 µM. Moreover, the TGI in the assay with A498 renal was over 100 µM; in the assay on SK-OV-3 ovarian it was over 100 µM; in the assay with NCI-H522 lung, 37.8 µM; in the assay on TK-10 renal, 75.7 µM.
As for `O=c1[nH]c2cc([N+](=O)[O-])c(N(CCO)CCO)c([N+](=O)[O-])c2[nH]1`, the TGI is 59.3 µM in the assay with UACC-257 melanoma; 80.9 µM in the assay with HL-60(TB) leukemia; over 100 µM in the assay on OVCAR-8 ovarian; over 100 µM with SR leukemia; over 100 µM in the assay on HT29 colon; over 100 µM with IGROV1 ovarian. Besides, the TGI was over 100 µM in the assay with MALME-3M melanoma; 91.7 µM with MDA-MB-435; over 100 µM with OVCAR-4 ovarian; over 100 µM in the assay on HOP-92 NSCLC; over 100 µM with MDA-N; 72.1 µM with UACC-62 melanoma. Besides, the TGI with SNB-75 CNS was 89.4 µM; with ACHN renal it was over 100 µM; in the assay on A498 renal it was 66 µM; in the assay on SK-OV-3 ovarian it was 89.7 µM; in the assay on NCI-H522 lung it was over 100 µM; with SK-MEL-28 melanoma, 91.8 µM.
Consider `CC(Nc1cc(=O)n(C)c(=O)[nH]1)c1ccccc1` (centres undefined), for which the TGI in the assay on UACC-257 melanoma, in the assay on HL-60(TB) leukemia, in the assay with OVCAR-8 ovarian, in the assay on SR leukemia, with HT29 colon and with IGROV1 ovarian was over 100 µM throughout. The TGI with MDA-MB-435, in the assay on OVCAR-4 ovarian, in the assay on HOP-92 NSCLC, with MDA-N, in the assay on UACC-62 melanoma and in the assay with SNB-75 CNS was over 100 µM each time. The TGI with ACHN renal, in the assay with A498 renal, in the assay on NCI-H522 lung, with SK-MEL-28 melanoma and with TK-10 renal was over 100 µM each time.
